pIC50: −log10 of the molar value.

This test relates to human basophils. In words: Inhibition of histamine release from immunologically stimulated human basophils. Type of test: cell-based. The following applies: Homo sapiens, concentration causing 50% inhibition of histamine release, by linear regression; active if IC50 ≦ 48 µM; read-out: IC50. The procedure, abridged: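 Leukocytes from sedimented human blood, washed in Tris-A and resuspended in Tris-ACM, were challenged with anti-IgE or antigen, with or without compound, for 60 min at 37 °C. Released histamine was measured fluorometrically after OPT derivatization and expressed as percent of total (perchloric acid lysate), corrected for spontaneous release.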
As to `CC(=O)Nc1ccc(Nc2nccc(-c3cccs3)n2)cc1` [N-[4-[[4-(2-Thienyl)-2-pyrimidinyl]amino]-phenyl]acetamide], the pIC50 (as a rule, the negative decadic logarithm of the IC50, by convention in mol/L) was 6.70.
As for `CC(=O)Nc1ccc(Nc2nccc(-c3cccnc3)n2)cc1` [N-[4-[[4-(3-Pyridinyl)-2-pyrimidin-yl]amino]phenyl]acetamide], the pIC50 is 5.44.
Under `CC(=O)Nc1ccc(Nc2nccc(-c3ccncc3)n2)cc1` [N-[4-[[4-(4-Pyridinyl)-2-pyrimidinyl]amino]-phenyl]acetamide] stands 5.28; under `CC(=O)Nc1ccc(Nc2nccc(-c3ccc(C)s3)n2)cc1` [N-[4-[[4-(5-Methyl-2-thienyl)-2-pyrimidinyl]amino]phenyl]acetamide], 6.52; under `Cc1ccc(CNc2nccc(-c3ccccn3)n2)cc1C` [N-[(3,4-Dimethylphenyl)methyl]-4-(2-pyridinyl)-2-pyrimidinamine], 4.40.
The result for `CCOC(=O)C(=O)N(c1ccccc1)c1nccc(-c2ccncc2)n1` [Oxo[phenyl[4-(4-pyridinyl)-2-pyrimidinyl]amino]acetic acid, ethyl ester] reads 5.68.
For `CCOC(=O)COc1ccc(Nc2nccc(-c3ccncc3)n2)cc1` [[4-[[4-Pyridinyl)-2-pyrimidinyl]amino]phenoxy]acetic acid, ethyl ester], the pIC50 was 5.24.
As to `CC(O)c1ccc(Nc2nccc(-c3cccnc3)n2)cc1` (stereo not drawn) [α-Methyl-4-[[4-(3-pyridinyl)-2-pyrimidinyl]amino]benzenemethanol], the pIC50 was 5.35.

(Values after EP0233461B2, “4,5,6-Substituted-2-pyrimidinamines” (AMERICAN CYANAMID COMPANY, priority 1986, dated 1987).)
